Assay results reported in US20220000734A1, “COMPOSITION AND METHOD OF STRENGTHENING SKIN BARRIER” (AMOREPACIFIC CORPORATION, priority 2018, published 2022).

Key:
Format in all cases: cell-based, human
[1] = tested on: KRT1 (keratin 1); test: KRT1 gene expression in UVB-irradiated NHEK (Taqman real-time PCR); details: UVB 25 mJ/cm^2, 10 nM compound, fourth day of culture, FIG. 1
Protocol: (§1) Normal human epidermal keratinocytes (NHEK) were cultured in a 6-well plate incubator. 24 hours later, the normal human epidermal keratinocytes (NHEK) were cultured by replacing it with phosphate-buffered saline (PBS) and irradiating it with UVB (25 mJ/cm^2) and adding 10 nM of a compound represented by Chemical Formula 1-1 (Cayman Chemical) to the NHEK culture medium. On the fourth day of the culture, cells were harvested to separate RNA and synthesize cDNA through RT-PCR (a reverse transcriptional polymerase chain reaction), and the synthesized cDNA was used to perform Taqman real-time PCR and measure gene expression levels of a keratinocyte differentiation markers, KRT1 and KRT10, and a desmosome constituent factor, DSC1, and the results are shown in FIGS. 1 to 3.

[2] = tested on: DSC1; test: DSC1 gene expression in UVB-irradiated NHEK (Taqman real-time PCR); details: UVB 25 mJ/cm^2, 10 nM compound, fourth day of culture, FIG. 3
Protocol: as §1

[3] = tested on: KRT10 (keratin 10); test: KRT10 gene expression in UVB-irradiated NHEK (Taqman real-time PCR); details: UVB 25 mJ/cm^2, 10 nM compound, fourth day of culture, FIG. 2
Protocol: as §1

CC/C=C/C/C=C\C[C@H](O)\C=C/C=C/C=C/[C@H](O)C/C=C\CCC(=O)O [Chemical Formula 1-1]
increased again: gene expression level of KRT1 (keratin 1) [1] | gene expression level of DSC1 [2] | gene expression level of KRT10 (keratin 10) [3]
